The source of these data is patent US10975092B2, “Pyrimidine seven-membered-ring compounds, preparation method therefor, pharmaceutical composition thereof, and uses thereof” (priority 2016, dated 2021).

In one test the target is T1, recombinant MST2 (Homo sapiens, UniProt Q13188).
T1 sequence (Q13188 1-491): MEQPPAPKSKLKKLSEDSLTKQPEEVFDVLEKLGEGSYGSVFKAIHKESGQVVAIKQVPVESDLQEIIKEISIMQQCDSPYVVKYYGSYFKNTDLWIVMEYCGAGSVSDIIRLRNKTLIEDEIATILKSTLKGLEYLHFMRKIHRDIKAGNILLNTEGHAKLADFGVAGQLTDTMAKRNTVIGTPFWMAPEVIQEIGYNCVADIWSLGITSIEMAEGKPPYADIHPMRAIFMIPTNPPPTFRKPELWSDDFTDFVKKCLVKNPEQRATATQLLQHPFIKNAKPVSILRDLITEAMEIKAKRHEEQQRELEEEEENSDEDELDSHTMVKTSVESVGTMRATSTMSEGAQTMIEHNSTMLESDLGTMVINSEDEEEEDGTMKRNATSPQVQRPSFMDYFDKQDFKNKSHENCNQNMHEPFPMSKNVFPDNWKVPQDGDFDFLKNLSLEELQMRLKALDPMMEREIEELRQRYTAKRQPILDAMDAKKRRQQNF
Nature of the test: Inhibition of Mst2 kinase activity, ELISA of Mob1 substrate phosphorylation. The following applies: MST2 IC50, 3.7 nM recombinant MST2; ATP 11.2 gIVI; GST-Mob1a substrate; 30° C. 15 min. Type of test: biochemical. The protocol: (§1) We adopt a specific ELISA (Enzyme-linked immunosorbent assay) assay for measuring the biochemical activity (FIG. 1).
(§2) Specific methods are as follows:
(§3) 1. The substrate was diluted with purified recombinant GST-Mobla 200 nM in coating buffer, added to 96-well plates (Nalge Nunc International, Denmark), coated for overnight at 4° C., washed nextday three times with rinsing solution;
(§4) a. A kinase reaction buffer;
(§5) c. compound (dissolved in DMSO, containing not more than 1% of the total volume of the reaction);
(§6) Control Group Containing No ATP or Kinase;
(§7) 3. The reaction solution was poured to terminate the kinase reaction, and washed 4 times with rinse solution, 5 minutes each wash;
(§8) 4. Add 200 μL, per well of the blocking solution, shaking for 1 hour at room temperature, washed 4 times with rinsing solution;
(§9) 7. Add TMB chromogenic solution (Biolegend, Cat.B200119, B200120). After the color reaction to a certain extent, add to each well 100 μL, of 2M H2SO4 to terminate the reaction;
(§10) 8. […] Each set of three parallel experiments, the negative control is a solution with a final concentration of 1% DMSO, the control is the reaction system containing no ATP. […] The reagents are as follows: Coating Buffer: 0.1M NaHCO 3, 0.033M Na2CO3, pH 9.5 Rinse solution: 0.05% Tween-20 in PBS Reaction buffer: 40 mM of Hepes-NaOH (pH 7.4), 10 mM of MgCl2, 1 mM of dithiothreitol (DTT), 1 mM of NaF, 1 mM of Na3VO4, 1 mM of β-glycerophosphate Blocking solution: 1% BSA dissolved in PBS Compound Inhibition of Kinase Activity

The subject of test [1] is wild type mice after hepatectomy. Nature of the test: Liver regeneration after partial liver resection (hepatectomy) in mice. Type of test: in vivo. The following applies: about 2/3 hepatectomy, 1 mg/kg body weight intraperitoneally twice daily, 1-7 days. The protocol:
Student's t-test in comparing drug-treated group and control group, *P<0.05, ***P<0.001.
8-10 week old wild type mice were anesthetized with intraperitoneal pentobarbital (80 mg/kg body weight). Hepatectomy was performed to remove left rear and intermediate liver lobes, about ⅔ of the entire liver. […] Mice after hepatectomy of 1, 2, 3, 4, 5, 6, or 7 days were sacrificed. Mouse body weight and liver weight are recorded and used to calculate the weight ratio of the liver (FIG. 2a). Liver tissue section used in immunohistochemistry to detect proliferating hepatocytes (of Ki67-positive) percentage.

The target in a further test is T2, recombinant Mst1 (Homo sapiens, UniProt Q13043).
T2 sequence (Q13043 1-487): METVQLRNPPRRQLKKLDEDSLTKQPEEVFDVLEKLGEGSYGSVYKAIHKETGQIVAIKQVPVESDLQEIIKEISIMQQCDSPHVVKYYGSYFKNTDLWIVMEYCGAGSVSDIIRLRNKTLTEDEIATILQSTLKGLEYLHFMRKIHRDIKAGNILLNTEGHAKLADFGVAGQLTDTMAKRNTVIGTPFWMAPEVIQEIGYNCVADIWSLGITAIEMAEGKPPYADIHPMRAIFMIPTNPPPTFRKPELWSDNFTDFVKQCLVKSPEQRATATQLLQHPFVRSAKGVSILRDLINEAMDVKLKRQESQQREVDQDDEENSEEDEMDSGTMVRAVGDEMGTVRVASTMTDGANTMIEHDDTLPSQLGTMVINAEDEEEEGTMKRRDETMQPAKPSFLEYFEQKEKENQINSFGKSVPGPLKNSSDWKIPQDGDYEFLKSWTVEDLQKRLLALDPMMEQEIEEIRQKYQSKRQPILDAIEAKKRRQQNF
Nature of the test: Inhibition of Mst1 kinase activity, ELISA of Mob1 substrate phosphorylation. The test is classed as biochemical. The conditions noted are these: MST1 IC50, recombinant Mst1 11 nM; ATP 6.7 gIVI; GST-Mob1a substrate; 30° C. 15 min. On the procedure:
as §1, §2, §3, §4, §5, §6, §7, §8, §9, §10

For test [2], the system named is DSS-treated wild type mice. Nature of the test: Intestinal repair in DSS-induced intestinal injury mouse model. The test is classed as in vivo. On the procedure: 8-10 week old wild type mice were fed with water containing 2.5% DSS (MW 36-50 kDa, Cat. #160110, MP Biochemical) for 7 days, then switch to conventional drinking water. […] Throughout the experiment, the body weight of mice was weighed every day at a fixed time and calculate the ratio of the weight and the weight before DSS feeding. […] The DAI values were calculated as follows: the integrity of the stool (value 0-3, where 0: full dried fecal pellets; 1: soft particles; 2: loose, wet stool; 3: diarrhea); detection of intestinal bleeding with tolidine (o-tolidine) (value 0-3, where 0: detection reagent was added for 2 minutes, sample no color; 1: detection reagent was added, the sample within 10 seconds from light blue to blue; 2: after adding detection reagents, samples gradually changed from light brown to brown clear blue and a visible color in the feces; 3: after adding detection reagents, samples rapidly becoming brownish blue, significant blood and bleeding in a anus and feces. The body weight change in mice and DAI values were recorded for indicating the degree of intestinal injury repair.

On to `CN1C(=O)c2sccc2N(C)c2nc(Nc3ccc(S(N)(=O)=O)cc3)ncc21` [II-1], for which the results for the IC50 at recombinant MST2 and on recombinant Mst1 were 0.04 µM and 0.14 µM, respectively. Further, the “Liver regeneration after partial liver resection (liver/body weight ratio, Ki67-positive hepatocytes)” value in test [1] was “Effective in Promoting Liver Regeneration”. Moreover, in test [2] (2.5% DSS in water 7 days, 1 mg/kg body weight injected once per day), the “Intestinal repair in DSS-induced intestinal injury model” value was “promotes intestinal repair”. Besides, in test [2] (2.5% DSS in water 7 days, 1 mg/kg once per day, FIG. 3a), the “Body weight of DSS-treated mice” value is given as “significantly increase”. Moreover, the “Intestinal injury clinical symptoms (disease activity index, DAI)” value in test [2] (2.5% DSS in water 7 days, 1 mg/kg once per day, FIG. 3b) is “slow the intestinal injury clinical symptoms”. Besides, the “Yap activity in intestinal epithelial cells (immunohistochemical staining)” value in test [2] (day 8 after DSS water feeding, 1 mg/kg once per day, FIG. 3c) is on record as “increases Yap activity”. The “Epithelial repair and cell proliferation (BrdU and Ki67 positive cells in intestinal tissue)” value in test [2] (day 8 after DSS water feeding, 1 mg/kg once per day, FIG. 3c-e) is “promote epithelial repair and cell proliferation”.

Turning to `CN1CCC(n2cc(Nc3ncc4c(n3)N(C)c3ccsc3C(=O)N4C)cn2)CC1` [II-20], the half-maximal inhibitory concentration (IC50) on recombinant MST2 was determined as 2.32 µM; at recombinant Mst1, 0.11 µM.

As for `CN1C(=O)c2sccc2N(C)c2nc(Nc3ccc(OC(=O)CCl)cc3)ncc21` [II-25], the figures for the IC50 at recombinant MST2 and at recombinant Mst1 were 2.24 µM and 0.58 µM, respectively.

Consider `CN1C(=O)c2cccc3c2N(CC3)c2nc(Nc3ccc(NS(C)(=O)=O)cc3)ncc21` [IV-1], for which the IC50 at recombinant MST2 was determined as 3.97 µM; at recombinant Mst1, 6.07 µM.

On to `CN1CCN(S(=O)(=O)c2ccc(Nc3ncc4c(n3)N(C)c3ccccc3C(=O)N4)cc2)CC1` [IA-2], for which the results for the IC50 at recombinant MST2 and at recombinant Mst1 were 14.8 µM and 2.38 µM, respectively.

`CN1C(=O)c2sccc2N(C)c2nc(Nc3ccc(S(=O)(=O)N4CCC(O)CC4)cc3)ncc21` [II-8]: the IC50 at recombinant MST2 was determined as 1.03 µM; at recombinant Mst1, 0.08 µM.

Consider `CN1C(=O)c2sccc2N(C)c2nc(Nc3ccc(S(=O)(=O)Oc4ccccc4)cc3)ncc21` [II-5], for which the half-inhibitory concentration (IC50) on recombinant MST2 was 8.89 µM; on recombinant Mst1, 4.64 µM.

For `CN1C(=O)c2cccc(F)c2N(C)c2nc(Nc3ccc(S(C)(=O)=O)cc3)ncc21` [IH-12], the half-inhibitory concentration (IC50) on recombinant MST2 was determined as 1.94 µM; at recombinant Mst1, 1.66 µM.

Consider `CN1C(=O)c2sccc2N(C)c2nc(Nc3ccc(S(C)(=O)=O)cc3)ncc21` [II-4], for which the IC50 at recombinant MST2 was 0.22 µM; at recombinant Mst1, 0.17 µM.

With `CN1C(=O)c2ccccc2N(C2CCCC2)c2nc(Nc3ccc(S(=O)(=O)N4CCC(O)CC4)cc3)ncc21` [IF-3], the concentration for half-maximal inhibition (IC50) at recombinant MST2 worked out at 15.7 µM; at recombinant Mst1 it was 2.44 µM.

Regarding `CN1C(=O)c2ccccc2N(C)c2nc(Nc3ccc(S(N)(=O)=O)cc3)ncc21` [IC-1], the figures for the IC50 at recombinant MST2 and at recombinant Mst1 were 0.11 µM and 0.07 µM, respectively.

Turning to `C=CC(=O)Nc1ccc(Nc2ncc3c(n2)N(C)c2ccsc2C(=O)N3C)cc1` [II-23], the IC50 at recombinant MST2 was 4.76 µM; on recombinant Mst1, 0.77 µM.

`CN1C(=O)c2cccc(F)c2N(C)c2nc(Nc3ccc(S(N)(=O)=O)cc3)ncc21` [IH-11]: the half-inhibitory concentration (IC50) at recombinant MST2 was found to be 0.44 µM; on recombinant Mst1 it was 0.23 µM.
